Test results reported in US6362369B1, “Phthalic acid diamide derivatives fluorine-containing aniline compounds as starting material, agricultural and horticultural insecticides, and a method for application of the insecticides” (Nihon Nohyaku Co., Ltd., priority 1997, dated 2002).

What was measured:
Format in all cases: in vivo
[1] = tested on: diamondback moth (Plutella xylostella); assay: Insecticidal effect on diamondback moth (Test Example 1); settings: diamondback moth; mortality judged by criterion of Test Example 1
Method in brief: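 Triplicate groups of 10 insects: eggs laid on Chinese cabbage seedling by adults, seedling immersed then air-dried, kept at 25° C. Day-6 hatch counts gave mortality, rated by criterion.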

[2] = tested on: rice leafroller (Cnaphalocrocis medinalis); assay: Insecticidal effect on rice leafroller (Test Example 3); settings: rice leafroller third-instar larvae; rice lamina immersed, 500 ppm; four days after inoculation; 25° C., humidity 70%
Method in brief: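 Insecticidal effect is judged by a predefined criterion from dead/alive counts four days after infesting air-dried lamina with third-instar larvae, kept on moistened filter paper at 25° C, 70% humidity.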

[3] = tested on: common cutworm (Spodoptera Litura); assay: Insecticidal effect on common cutworm (Test Example 2); settings: common cutworm second-instar larvae; cabbage leaf immersed, 500 ppm; eight days after inoculation; 25° C.
Method in brief: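 Mortality was scored 8 days post-inoculation, using three groups of 10 second-instar larvae kept at 25 °C in closed 9 cm dishes on air-dried treated material. The insecticidal effect was graded from calculated mortality by a set criterion.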

SMILES	Insecticidal effect, Test Example 1 [1]	Insecticidal effect, Test Example 3 [2]	Insecticidal effect, Test Example 2 [3]
CCC(CC)NC(=O)c1c(I)cccc1C(=O)Nc1ccc(C(F)(F)C(F)(F)F)cc1C [compound 1011]	A (100)	A (100)	A (100)
CCC(COC)NC(=O)c1c(I)cccc1C(=O)Nc1ccc(C(F)(F)C(F)(F)F)cc1C (stereo not drawn) [compound 1013]	A (100)	A (100)	A (100)
Cc1cc(C(F)(F)C(F)(F)F)ccc1NC(=O)c1cccc(I)c1C(=O)NCCC(C)C [compound 1015]	A (100)	A (100)	D (79-50)
CCc1cc(C(F)(F)C(F)(F)F)ccc1NC(=O)c1cccc(I)c1C(=O)NC(C)C [compound 1017]	A (100)	A (100)	A (100)
Cc1cc(OC(F)F)ccc1NC(=O)c1ccccc1C(=O)NC(C)(C)C [compound 1018]	A (100)	A (100)	D (79-50)
Cc1cc(OC(F)F)ccc1NC(=O)c1cccc(Cl)c1C(=O)NC(C)(C)C [compound 1019]	A (100)	A (100)	A (100)
Cc1cc(OC(F)F)ccc1NC(=O)c1cccc(I)c1C(=O)NC(C)(C)C [compound 1020]	A (100)	A (100)	A (100)
CC(C)(C)NC(=O)c1c(Cl)cccc1C(=O)Nc1ccc(OC(F)(F)F)cc1Cl [compound 1022]	A (100)	A (100)	A (100)
CC(C)(C)NC(=O)c1c(I)cccc1C(=O)Nc1ccc(OC(F)(F)F)cc1Cl [compound 1023]	A (100)	A (100)	A (100)
Cc1cc(C(F)(F)C(F)(F)F)ccc1NC(=O)c1cccc(I)c1C(=O)NC1CC1 [compound 1024]	A (100)	A (100)	A (100)
Cc1cc(C(F)(F)C(F)(F)F)ccc1NC(=O)c1cccc(I)c1C(=O)NCC1CCCCC1 [compound 1028]	A (100)	A (100)	A (100)
COCC(C)NC(=O)c1c(I)cccc1C(=O)Nc1ccc(C(F)(F)C(F)(F)F)cc1C (stereo not drawn) [compound 1031]	A (100)	A (100)	A (100)
Cc1cc(C(F)(F)C(F)(F)F)ccc1NC(=O)c1cccc(I)c1C(=O)NC(C)C(C)C (stereo not drawn) [compound 1033]	A (100)	A (100)	A (100)
CCN(CC)C(=O)c1c(I)cccc1C(=O)Nc1ccc(C(F)(F)C(F)(F)F)cc1C [compound 1035]	A (100)	A (100)	A (100)
Cc1cc(C(F)(C(F)(F)F)C(F)(F)F)ccc1NC(=O)c1ccccc1C(=O)NC(C)(C)C [compound 1037]	A (100)	A (100)	A (100)
Cc1cc(C(F)(C(F)(F)F)C(F)(F)F)ccc1NC(=O)c1cccc(Cl)c1C(=O)NC(C)(C)C [compound 1038]	A (100)	A (100)	A (100)
Cc1cc(C(F)(C(F)(F)F)C(F)(F)F)ccc1NC(=O)c1cccc(I)c1C(=O)NC(C)(C)C [compound 1039]	A (100)	A (100)	A (100)
Cc1cc(C(F)(F)C(F)(F)F)ccc1NC(=O)c1cccc(I)c1C(=O)NCC(F)(F)F [compound 1040]	A (100)	A (100)	A (100)
Cc1cc(C(F)(F)C(F)(F)F)ccc1NC(=O)c1c(I)cccc1C(=O)NCC(F)(F)F [compound 1041]	A (100)	A (100)	A (100)
Cc1cc(C(F)(F)C(F)(F)F)ccc1NC(=O)c1cccc(I)c1C(=O)N(C)C(C)C [compound 1042]	A (100)	A (100)	A (100)
